Results from patent US12371748B2, “Genetic markers for predicting responsiveness to therapy with HDL-raising or HDL mimicking agent” (Hoffmann-La Roche Inc., priority 2014, dated 2025).

System: patients with evidence of coronary artery disease
Assay: dal-PLAQUE-2: change in carotid intima-media thickness (B-mode ultrasound) by ADCY9 genotype
Assay type: in vivo, human
Text: The dal-PLAQUE-2 study (Tardif J C et al, Circulation Cardiovascular imaging 2011; 4:319-33) was a phase 3b multicenter, double-blind, randomized, placebo-controlled, parallel group trial designed to evaluate the effect of dalcetrapib on atherosclerotic disease progression in patients with evidence of coronary artery disease and carotid intima media thickness of at least 0.65 mm in the far wall of the common carotid arteries, as assessed by B-mode ultrasonography. A total of 931 patients were randomized to receive dalcetrapib 600 mg daily or matching placebo with intended treatment duration of 24 months. However, the trial was terminated prematurely concurrent with the termination of dal OUTCOMES (the latter due to futility). Patients continued study medication until they returned for follow-up carotid imaging at 12 months. Carotid B-mode ultrasound recordings at baseline, month 6, and month 12 were analyzed centrally at the core laboratory of the Montreal Heart Institute. Intima-media thickness (IMT) was analyzed on the far wall of the common carotid arteries. A segment of 10 mm in length of the common carotid artery was analyzed on serial examinations using an automated edge detection software (Carotid Analyzer, Medical Imaging Applications, Coralville, Iowa). Among the 411 participants in the dal-PLAQUE-2 trial who consented to the genetic study, 386 had imaging measures at baseline, 6 months and 12 months (194 and 192 in the dalcetrapib and placebo arms respectively). DNA was extracted from whole blood. The research protocols were approved by the relevant institutional review boards or ethics committees and all human participants gave written informed consent.
All acquired carotid ultrasound recordings were analyzed at the core laboratory of the Montreal Heart Institute by experienced technicians supervised by a physician. Images were required to meet quality and inclusion and exclusion criteria for eligibility prior to random assignment to study treatment. The methods for carotid intima-media thickness analysis included side-by-side viewing of baseline and follow-up studies.
Carotid arterial wall segments were assessed in a longitudinal view, perpendicular to the ultrasound beam, with a horizontal display of the arterial image in order to view the interfaces between blood and vascular structures on the longest possible segment. The localization of the end of the common carotid artery was used as the landmark in repositioning and analyzing comparative length of segments in baseline and follow-up studies. Intima-media thickness was analyzed on the far wall of the right and left common carotid arteries, to reduce variability of measurements. The average of the mean intima-media thickness values of the right and left common carotid arteries was used. A matched segment of 10 mm in length of the common carotid artery was analyzed on serial examinations (baseline, 6 months and 12 months), starting 5 mm proximal to the carotid bifurcation. The edge detection software Carotid Analyzer (Medical Imaging Applications LLC, Coralville, Iowa) was used to analyze intima-media thickness using the automated option. Two sets of carotid artery borders were identified: First, the media-adventitia borders were determined and verified by the reader. When required, their locations were semi-automatically modified to the correct location. When these borders were approved, the lumen-intima boundaries were automatically detected using the media-adventitia borders for guidance. Frames from looped sequences of intima-media thickness were selected for reading, and poor quality outlier frames were removed from the analysis when required.
For the dal-Plaque-2 population, mixed regression models for repeated measures analysis were tested in SAS software. The dal-Plaque-2 tested endpoint was the mean of IMT measures of common carotid arteries at the 6-month and the 12-month visits, using the baseline measure as covariate. […]

With `CCC(CC)CC1(C(=O)Nc2ccccc2SC(=O)C(C)C)CCCCC1` [dalcetrapib, thioisobutyric acid S-(2-{[1-(2-ethyl-butyl)-cyclohexanecarbonyl]-amino}-phenyl) ester] the “Change from baseline in carotid intima-media thickness, Mean” value (“Change from baseline” below) (rs8061182, homozygotes for minor allele, M12) was −0.001 mm, the “Change from baseline” value (rs11647778, heterozygotes, M06) was −0.002 mm and the “Change from baseline” value (rs11647778, heterozygotes, M12) was 0.001 mm. For the same compound, the “Change from baseline” value (rs11647778, homozygotes for major allele, M06) was 0.011 mm, the “Change from baseline” value (rs11647778, homozygotes for major allele, M12) was 0.008 mm and the “Change from baseline” value (rs11647778, homozygotes for minor allele, M06) was −0.013 mm. For the same compound, the “Change from baseline” value (rs11647778, homozygotes for minor allele, M12) was −0.026 mm, the “Change from baseline” value (rs11647828, heterozygotes, M06) was −0.002 mm and the “Change from baseline” value (rs11647828, heterozygotes, M12) was −0.003 mm. The “Change from baseline” value (rs11647828, homozygotes for major allele, M06) was 0.011 mm, the “Change from baseline” value (rs11647828, homozygotes for major allele, M12) was 0.009 mm and the “Change from baseline” value (rs11647828, homozygotes for minor allele, M06) was −0.018 mm. For the same compound, the “Change from baseline” value (rs11647828, homozygotes for minor allele, M12) was −0.020 mm, the “Change from baseline” value (rs12595857, heterozygotes, M06) was −0.003 mm and the “Change from baseline” value (rs12595857, heterozygotes, M12) was −0.002 mm. The “Change from baseline” value (rs12595857, homozygotes for major allele, M06) was 0.011 mm, the “Change from baseline” value (rs12595857, homozygotes for major allele, M12) was 0.010 mm and the “Change from baseline” value (rs12595857, homozygotes for minor allele, M06) was −0.008 mm. For the same compound, the “Change from baseline” value (rs12595857, homozygotes for minor allele, M12) was −0.018 mm, the “Change from baseline” value (rs12599911, heterozygotes, M06) was −0.003 mm and the “Change from baseline” value (rs12599911, heterozygotes, M12) was −0.002 mm. For the same compound, the “Change from baseline” value (rs12599911, homozygotes for major allele, M06) was 0.011 mm, the “Change from baseline” value (rs12599911, homozygotes for major allele, M12) was 0.010 mm and the “Change from baseline” value (rs12599911, homozygotes for minor allele, M06) was −0.008 mm. For the same compound, the “Change from baseline” value (rs12599911, homozygotes for minor allele, M12) was −0.019 mm, the “Change from baseline” value (rs12920508, heterozygotes, M06) was −0.003 mm and the “Change from baseline” value (rs12920508, heterozygotes, M12) was −0.001 mm. For the same compound, the “Change from baseline” value (rs12920508, homozygotes for major allele, M06) was 0.006 mm, the “Change from baseline” value (rs12920508, homozygotes for major allele, M12) was 0.005 mm and the “Change from baseline” value (rs12920508, homozygotes for minor allele, M06) was −0.005 mm. The “Change from baseline” value (rs12920508, homozygotes for minor allele, M12) was −0.021 mm, the “Change from baseline” value (rs12935810, heterozygotes, M06) was −0.003 mm and the “Change from baseline” value (rs12935810, heterozygotes, M12) was −0.001 mm. The “Change from baseline” value (rs12935810, homozygotes for major allele, M06) was −0.006 mm, the “Change from baseline” value (rs12935810, homozygotes for major allele, M12) was −0.007 mm and the “Change from baseline” value (rs12935810, homozygotes for minor allele, M06) was 0.021 mm. For the same compound, the “Change from baseline” value (rs12935810, homozygotes for minor allele, M12) was 0.010 mm, the “Change from baseline” value (rs13337675, heterozygotes, M06) was 0.002 mm and the “Change from baseline” value (rs13337675, heterozygotes, M12) was 0.005 mm. The “Change from baseline” value (rs13337675, homozygotes for minor allele, M06) was 0.016 mm, the “Change from baseline” value (rs13337675, homozygotes for minor allele, M12) was −0.011 mm and the “Change from baseline” value (rs17136707, heterozygotes, M06) was −0.006 mm. For the same compound, the “Change from baseline” value (rs17136707, heterozygotes, M12) was −0.004 mm, the “Change from baseline” value (rs17136707, homozygotes for minor allele, M06) was −0.015 mm and the “Change from baseline” value (rs17136707, homozygotes for minor allele, M12) was −0.008 mm. For the same compound, the “Change from baseline” value (rs74702385, heterozygotes, M06) was −0.006 mm, the “Change from baseline” value (rs74702385, heterozygotes, M12) was −0.002 mm and the “Change from baseline” value (rs74702385, homozygotes for minor allele, M06) was −0.015 mm. The “Change from baseline” value (rs74702385, homozygotes for minor allele, M12) was −0.008 mm, the “Change from baseline” value (rs111590482, heterozygotes, M06) was −0.006 mm and the “Change from baseline” value (rs111590482, heterozygotes, M12) was −0.002 mm. For the same compound, the “Change from baseline” value (rs111590482, homozygotes for minor allele, M06) was −0.015 mm and the “Change from baseline” value (rs111590482, homozygotes for minor allele, M12) was −0.008 mm.
